In patent US7205305B2, “Inhibitors of p38” (Vertex Pharmaceuticals Incorporated, priority 1996, dated 2007):

How the values were obtained:
activated p38 [1] = molecular target: T1, activated p38 (Homo sapiens, UniProt Q16539); test: Inhibition of phosphorylation of EGF receptor peptide ("kinase"); format: biochemical; conditions: inhibition of phosphorylation of EGF receptor peptide by activated p38
In short: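 Activated p38 was preincubated with inhibitor for 15 min at room temperature in 100 mM HEPES pH 7.6, 10 mM MgCl2, 25 mM β-glycerophosphate, 10% glycerol, 5% DMSO final. Reaction used 200 μM EGF receptor peptide and 100 μM ATP for 30 min at 30° C. TFA-quenched phosphopeptide was quantified by reverse-phase HPLC.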

activated p38 [2] = molecular target: T1, activated p38; test: Inhibition of ATPase activity; format: biochemical; conditions: ATPase activity of activated p38 (60 nM), 30° C., 30 minutes
Experimental: This assay was carried out in the presence of 10 mM MgCl2, 25 mM β-glycerophosphate, 10% glycerol and 100 mM HEPES buffer at pH 7.6. For a typical Ki determination, the Km for ATP in the ATPase activity of activated p38 reaction was determined in the absence of inhibitor and in the presence of two concentrations of inhibitor. A stock solution was prepared containing all of the above components and activated p38 (60 nM). The stock solution was aliquotted into vials. […] The reaction was initiated by adding various concentrations of ATP and then incubated at 30° C. After 30 minutes, the reactions were quenched with 50 μl of EDTA (0.1 M, final concentration), pH 8.0. The product of p38 ATPase activity, ADP, was quantified by HPLC analysis.
Separation of ADP from ATP was achieved on a reversed phase column (Supelcosil, LC-18, 3 μm, part no. 5–8985) using a binary solvent gradient of following composition: Solvent A—0.1 M phosphate buffer containing 8 mM tetrabutylammonium hydrogen sulfate (Sigma Chemical Co., catalogue no. T-7158), Solvent B—Solvent A with 30% methanol.
Ki was determined from the rate data as a function of inhibitor and ATP concentrations.

[3] = system: IL-1 production in LPS-stimulated PBMCs; test: Inhibition of IL-1 production in LPS-stimulated PBMCs ("cell"); format: cell-based, human; conditions: Homo sapiens, PBMC
In short: (§1)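 Cytokine levels (IL-1β, TNF-α) in culture supernatants quantified by ELISA, with IC50 taken from dose-response curves. Fresh human PBMCs in RPMI1640 with 10% FBS received serially diluted compound plus LPS (4 ng/ml final) and were cultured 12–15 h at 37 °C, 5% CO2.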

[4] = system: TNF production in LPS-stimulated PBMCs; test: Inhibition of TNF production in LPS-stimulated PBMCs ("cell"); format: cell-based, human; conditions: Homo sapiens, PBMC
In short: as §1

[5] = system: IL-6 production in IL-1-stimulated PBMCs; test: Inhibition of IL-6 production in IL-1-stimulated PBMCs; format: cell-based; conditions: Homo sapiens, PBMC; IL-1b-stimulated PBMCs, ELISA, overnight incubation
Experimental: (§2) This assay was carried out on PBMCs exactly the same as above except that 50 μl of an IL-1b working stock solution (2 ng/ml in cell culture medium) was added to the assay instead of the (LPS) working stock solution.
(§3) Cell culture supernatants were harvested as described above and analyzed by ELISA for levels of IL-6 (Endogen, #EH2-IL6) and IL-8 (Endogen, #EH2-IL8) according to the instructions of the manufacturer. The ELISA data were used to generate dose-response curves from which IC50 values were derived.

[6] = system: IL-8 production in IL-1-stimulated PBMCs; test: Inhibition of IL-8 production in IL-1-stimulated PBMCs; format: cell-based; conditions: Homo sapiens, PBMC; IL-1b-stimulated PBMCs, ELISA, overnight incubation
Experimental: as §2, §3

[7] = system: LPS induced PGHS-2 expression in PBMCs; test: Inhibition of LPS-induced prostaglandin endoperoxide synthase-2 (PGHS-2, or COX-2) induction in PBMCs; format: cell-based, human; conditions: PBMCs, 0.2, 2.0 and 20 μM compound, LPS 4 ng/ml, overnight, anti-COX-2 immunoblot
Experimental: Human peripheral mononuclear cells (PBMCs) were isolated from fresh human blood buffy coats by centrifugation in a Vacutainer CPT (Becton & Dickinson). We seeded 15×10^6 cells in a 6-well tissue culture dish containing RPMI 1640 supplemented with 10% fetal bovine serum, 50 U/ml penicillin, 50 μg/ml streptomycin, and 2 mM L-glutamine. Compound 6 (above) was added at 0.2, 2.0 and 20 μM final concentrations in DMSO. Then we added LPS at a final concentration of 4 ng/ml to induce enzyme expression. The final culture volume was 10 ml/well.
After overnight incubation at 37° C., 5% CO2, the cells were harvested by scraping and subsequent centrifugation, then the supernatant was removed, and the cells were washed twice in ice-cold DPBS (Dulbecco's phosphate buffered saline, BioWhittaker). The cells were lysed on ice for 10 min in 50 μl cold lysis buffer (20 mM Tris-HCl, pH 7.2, 150 mM NaCl, 1% Triton-X-100, 1% deoxycholic acid, 0.1% SDS, 1 mM EDTA, 2% aprotinin (Sigma), 10 μg/ml pepstatin, 10 μg/ml leupeptin, 2 mM PMSF, 1 mM benzamidine, 1 mM DTT) containing 1 μl Benzonase (DNAse from Merck). The protein concentration of each sample was determined using the BCA assay (Pierce) and bovine serum albumin as a standard. Then the protein concentration of each sample was adjusted to 1 mg/ml with cold lysis buffer. […]

T1 sequence (Q16539 whole entry): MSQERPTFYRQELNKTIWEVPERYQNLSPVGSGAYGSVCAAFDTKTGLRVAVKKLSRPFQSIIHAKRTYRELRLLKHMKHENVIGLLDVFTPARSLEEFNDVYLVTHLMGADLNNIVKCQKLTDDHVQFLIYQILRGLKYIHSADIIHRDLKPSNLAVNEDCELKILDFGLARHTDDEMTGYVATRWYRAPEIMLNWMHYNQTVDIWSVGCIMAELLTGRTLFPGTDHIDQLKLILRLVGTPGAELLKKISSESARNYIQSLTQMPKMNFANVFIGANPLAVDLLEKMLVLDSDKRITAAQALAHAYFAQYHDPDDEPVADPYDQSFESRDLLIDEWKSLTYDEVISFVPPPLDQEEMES

IC50 (activated p38 [1]): 100 to 1000 nM
Ki (activated p38 [2]): 400 nM
Compound: O=c1ncn2nc(Sc3ccccc3)ccc2c1-c1c(Cl)cccc1Cl [Compound 6]
IC50 [3]: 100 to 500 nM
IC50 [4]: ≥ 500 nM
IC50 [5]: 600 nM
IC50 [6]: 850 nM
LPS induced PGHS-2 expression [7]: inhibits LPS induced PGHS-2 expression in PBMCs
